# Experimental data: ChEMBL document CHEMBL1138190, “Synthesis and antibacterial activity of novel C12 vinyl ketolides” (J Med Chem, 2006)
# Active and inactive are the calls of the source. The calls are words filed in the database; no cut-off is given here.
# Experiments:
# [1] = system: Streptococcus pneumoniae; assay: Antibacterial activity against Streptococcus pneumoniae Mef 1790; type: functional
# [2] = system: Streptococcus pneumoniae; assay: Antibacterial activity against Streptococcus pneumoniae 297-749; type: functional
# [3] = system: Streptococcus pneumoniae; assay: Antibacterial activity against Streptococcus pneumoniae Erm 6388; type: functional
# [4] = system: Streptococcus pneumoniae; assay: Antibacterial activity against Streptococcus pneumoniae Mef 953; type: functional
# [5] = system: Streptococcus pneumoniae; assay: Antibacterial activity against Streptococcus pneumoniae Erm 5399; type: functional
# [6] = system: Staphylococcus aureus; assay: Antibacterial activity against Staphylococcus aureus 29213; type: functional
# [7] = system: Streptococcus pneumoniae; assay: Antibacterial activity against Streptococcus pneumoniae Mef 1566; type: functional
# [8] = system: Streptococcus pneumoniae; assay: Antibacterial activity against Streptococcus pneumoniae Mef 1556; type: functional
# [9] = system: Streptococcus pneumoniae; assay: Antibacterial activity against Streptococcus pneumoniae Erm 867; type: functional
# [10] = system: Streptococcus pneumoniae; assay: Antibacterial activity against Streptococcus pneumoniae Mef 2880; type: functional
# [11] = Volume of distribution in Sprague-Dawley rat at 5 mg/kg, iv and 15 mg/kg, po; type: ADME, organism-based; details: in vivo, read-out: Vdss
# [12] = system: Haemophilus influenzae; assay: Antibacterial activity against Haemophilus influenzae 2762; type: functional
# [13] = system: Rattus norvegicus; assay: Efficacy against Haemophilus influenzae in Sprague-Dawley rat lung infection model at 100 mg/kg; type: functional, organism-based; set-up: dose 100 mg/kg
# [14] = system: Streptococcus pneumoniae; assay: Antibacterial activity against Streptococcus pneumoniae Mef 9142; type: functional
# [15] = system: Streptococcus pneumoniae; assay: Antibacterial activity against Streptococcus pneumoniae Erm 8919; type: functional
# [16] = system: Streptococcus pneumoniae; assay: Antibacterial activity against Streptococcus pneumoniae Mef 10095; type: functional
# [17] = system: Streptococcus pneumoniae; assay: Antibacterial activity against Streptococcus pneumoniae Erm 3120; type: functional
# [18] = system: Streptococcus pneumoniae; assay: Antibacterial activity against Streptococcus pneumoniae Mef 3449; type: functional
# [19] = system: Streptococcus pneumoniae; assay: Antibacterial activity against Streptococcus pneumoniae Erm 10279; type: functional
# [20] = system: Streptococcus pneumoniae; assay: Antibacterial activity against Streptococcus pneumoniae Erm 4290; type: functional
# [21] = system: Enterococcus faecalis; assay: Antibacterial activity against Enterococcus faecalis 29212; type: functional
# [22] = system: Staphylococcus aureus; assay: Antibacterial activity against Staphylococcus aureus 33591; type: functional
# [23] = Oral bioavailability in Sprague-Dawley rat at 100 mg/kg, po; type: ADME, organism-based; details: in vivo
# [24] = system: Streptococcus pyogenes; assay: Antibacterial activity against Streptococcus pyogenes 8668; type: functional
# [25] = system: Streptococcus pneumoniae; assay: Antibacterial activity against Streptococcus pneumoniae 49619; type: functional
# [26] = system: Streptococcus pneumoniae; assay: Antibacterial activity against Streptococcus pneumoniae Erm 5354; type: functional
# [27] = system: Rattus norvegicus; assay: Efficacy against Streptococcus pneumoniae Erm in Sprague-Dawley rat lung infection model at 100 mg/kg; type: functional, organism-based; set-up: dose 100 mg/kg
# [28] = system: Haemophilus influenzae; assay: Antibacterial activity against Haemophilus influenzae 49247; type: functional
# [29] = system: Streptococcus pneumoniae; assay: Antibacterial activity against Streptococcus pneumoniae Mef 2382; type: functional
# [30] = system: Rattus norvegicus; assay: Efficacy against Streptococcus pneumoniae Mef in Sprague-Dawley rat lung infection model at 100 mg/kg; type: functional, organism-based; set-up: dose 100 mg/kg
# [31] = system: Streptococcus pneumoniae; assay: Antibacterial activity against Streptococcus pneumoniae Mef 9959; type: functional
# [32] = system: Streptococcus pneumoniae; assay: Antibacterial activity against Streptococcus pneumoniae Erm 2218; type: functional
# [33] = system: Streptococcus pneumoniae; assay: Antibacterial activity against Streptococcus pneumoniae Erm S 4297; type: functional
# [34] = system: Streptococcus pneumoniae; assay: Antibacterial activity against Streptococcus pneumoniae Erm 5415; type: functional
# [35] = system: Streptococcus pneumoniae; assay: Antibacterial activity against Streptococcus pneumoniae 280-962; type: functional
# [36] = system: Streptococcus pneumoniae; assay: Antibacterial activity against Streptococcus pneumoniae Erm 7985; type: functional
# [37] = system: Streptococcus pneumoniae; assay: Antibacterial activity against Streptococcus pneumoniae Erm 4589; type: functional
# [38] = Lung-to-plasma AUC ratio in Sprague-Dawley rat at 5 mg/kg, iv; type: ADME, organism-based; set-up: dose 5 mg/kg, route intravenous; details: lung and plasma
# [39] = system: Streptococcus pneumoniae; assay: Antibacterial activity against Streptococcus pneumoniae Mef S 3435; type: functional
# [40] = system: Streptococcus pneumoniae; assay: Antibacterial activity against Streptococcus pneumoniae Mef 4126; type: functional
# [41] = system: Streptococcus pneumoniae; assay: Antibacterial activity against Streptococcus pneumoniae Erm 8339; type: functional
# [42] = system: Staphylococcus epidermidis; assay: Antibacterial activity against Staphylococcus epidermidis 14990; type: functional
# [43] = Clearance in Sprague-Dawley rat at 5 mg/kg, iv and 15 mg/kg, po; type: ADME, organism-based; details: in vivo
# [44] = system: Enterococcus faecalis; assay: Antibacterial activity against Enterococcus faecalis bc11148-2; type: functional
# [45] = system: Streptococcus pneumoniae; assay: Antibacterial activity against Streptococcus pneumoniae Mef S 3427; type: functional
# [46] = system: Streptococcus pneumoniae; assay: Antibacterial activity against Streptococcus pneumoniae Erm 6396; type: functional
# [47] = system: Streptococcus pneumoniae; assay: Antibacterial activity against Streptococcus pneumoniae Erm 6849; type: functional
# [48] = system: Streptococcus pneumoniae; assay: Antibacterial activity against Streptococcus pneumoniae Erm S 4085; type: functional
# [49] = system: Streptococcus pneumoniae; assay: Antibacterial activity against Streptococcus pneumoniae Mef 3855; type: functional
# [50] = system: Staphylococcus epidermidis; assay: Antibacterial activity against Staphylococcus epidermidis f50654; type: functional
# [51] = system: Streptococcus pneumoniae; assay: Antibacterial activity against Streptococcus pneumoniae Erm 5554; type: functional
# [52] = system: Streptococcus pneumoniae; assay: Antibacterial activity against Streptococcus pneumoniae Mef 41; type: functional
# [53] = system: Streptococcus pneumoniae; assay: Antibacterial activity against Streptococcus pneumoniae Erm 5590; type: functional
# [54] = system: Streptococcus pneumoniae; assay: Antibacterial activity against Streptococcus pneumoniae Erm 8947; type: functional
# [55] = system: Streptococcus pneumoniae; assay: Antibacterial activity against Streptococcus pneumoniae Mef 6966; type: functional
# [56] = system: Streptococcus pneumoniae; assay: Antibacterial activity against Streptococcus pneumoniae Mef 5654; type: functional
# [57] = system: Streptococcus pneumoniae; assay: Antibacterial activity against Streptococcus pneumoniae Mef 983; type: functional
# [58] = system: Streptococcus pneumoniae; assay: Antibacterial activity against Streptococcus pneumoniae Mef 5649; type: functional
# [59] = Lung half life in Sprague-Dawley rat at 15 mg/kg, po; type: ADME, organism-based; set-up: dose 15 mg/kg, route oral
# [60] = system: Streptococcus pneumoniae; assay: Antibacterial activity against Streptococcus pneumoniae Erm 8257; type: functional
# [61] = system: Streptococcus pneumoniae; assay: Antibacterial activity against Streptococcus pneumoniae Mef 4331; type: functional
smiles,measurement,setting,value
CC[C@H]1OC(=O)[C@H](C)C(=O)[C@H](C)[C@@H](O[C@@H]2O[C@H](C)C[C@H](N(C)C)[C@H]2O)[C@](C)(OC)C[C@@H](C)C(=O)[C@H](C)[C@H]2N(CCCCn3cnc(-c4cccnc4)c3)C(=O)O[C@]12C [TELITHROMYCIN],MIC,[1],0.5 µg/mL
same,MIC,[2],≤ 0.05 µg/mL
same,MIC,[3],0.78 µg/mL
same,MIC,[4],0.13 µg/mL
same,MIC,[5],≤ 0.013 µg/mL
same,MIC,[6],0.1 µg/mL
same,MIC,[7],0.5 µg/mL
same,MIC,[8],0.13 µg/mL
same,MIC,[9],0.025 µg/mL
same,MIC,[10],0.13 µg/mL
same,Vd,[11],5 L/kg
same,MIC,[12],0.4 µg/mL
same,Activity,[13],inactive
same,MIC,[14],0.5 µg/mL
same,MIC,[15],0.025 µg/mL
same,MIC,[16],0.06 µg/mL
same,MIC,[17],0.1 µg/mL
same,MIC,[18],0.25 µg/mL
same,MIC,[19],0.025 µg/mL
same,MIC,[20],≤ 0.013 µg/mL
same,MIC,[21],≤ 0.05 µg/mL
same,MIC,[22],> 50 µg/mL
same,bioavailability,[23],84%
same,MIC,[24],≤ 0.05 µg/mL
same,MIC,[25],≤ 0.05 µg/mL
same,MIC,[26],0.025 µg/mL
same,Activity,[27],inactive
same,MIC,[28],3.13 µg/mL
same,MIC,[29],0.25 µg/mL
same,Activity,[30],inactive
same,MIC,[31],0.25 µg/mL
same,MIC,[32],0.025 µg/mL
same,MIC,[33],0.1 µg/mL
same,MIC,[34],0.025 µg/mL
same,MIC,[35],≤ 0.05 µg/mL
same,MIC,[36],≤ 0.013 µg/mL
same,MIC,[37],0.025 µg/mL
same,Kp,[38],16
same,MIC,[39],0.06 µg/mL
same,MIC,[40],0.06 µg/mL
same,MIC,[41],0.78 µg/mL
same,MIC,[42],0.1 µg/mL
same,clearance,[43],100 mL/min/kg
same,MIC,[44],0.4 µg/mL
same,MIC,[45],0.13 µg/mL
same,MIC,[46],0.1 µg/mL
same,MIC,[47],0.2 µg/mL
same,MIC,[48],≤ 0.013 µg/mL
same,MIC,[49],0.25 µg/mL
same,MIC,[50],0.1 µg/mL
same,MIC,[51],0.2 µg/mL
same,MIC,[52],0.13 µg/mL
same,MIC,[53],≤ 0.013 µg/mL
same,MIC,[54],0.1 µg/mL
same,MIC,[55],0.25 µg/mL
same,MIC,[56],0.5 µg/mL
same,MIC,[57],0.5 µg/mL
same,MIC,[58],0.5 µg/mL
same,half-life,[59],1.3 h
same,MIC,[60],≤ 0.013 µg/mL
same,MIC,[61],1 µg/mL
C=C[C@]12OC(=O)N(CCCCn3cnc(-c4cnc(C)cn4)c3)[C@@H]1[C@@H](C)C(=O)[C@H](C)C[C@@](C)(OC)[C@H](O[C@@H]1O[C@H](C)C[C@H](N(C)C)[C@H]1O)[C@@H](C)C(=O)[C@@H](C)C(=O)O[C@@H]2CC,MIC,[2],≤ 0.05 µg/mL
same,MIC,[6],0.1 µg/mL
same,MIC,[12],0.78 µg/mL
same,MIC,[21],0.1 µg/mL
same,MIC,[22],> 50 µg/mL
same,MIC,[24],≤ 0.05 µg/mL
same,MIC,[25],≤ 0.05 µg/mL
same,MIC,[28],3.13 µg/mL
same,MIC,[35],≤ 0.05 µg/mL
same,MIC,[42],0.2 µg/mL
same,MIC,[44],0.78 µg/mL
same,MIC,[45],0.2 µg/mL
same,MIC,[47],0.2 µg/mL
same,MIC,[50],0.1 µg/mL
same,MIC,[56],0.78 µg/mL
